The values below come from ChEMBL document CHEMBL1145717, “Nostopeptins A and B, Elastase Inhibitors from the Cyanobacterium Nostoc minutum” (J Nat Prod, 1997).

SMILES strings stand for the structures. Converted amounts (≈) assume the structure as drawn. The source made the active and inactive calls. The calls are words filed in the database; no cut-off is given here.

The target in assay [1] is T1, Papain (Carica papaya) (UniProt P00784).
T1 sequence (whole entry): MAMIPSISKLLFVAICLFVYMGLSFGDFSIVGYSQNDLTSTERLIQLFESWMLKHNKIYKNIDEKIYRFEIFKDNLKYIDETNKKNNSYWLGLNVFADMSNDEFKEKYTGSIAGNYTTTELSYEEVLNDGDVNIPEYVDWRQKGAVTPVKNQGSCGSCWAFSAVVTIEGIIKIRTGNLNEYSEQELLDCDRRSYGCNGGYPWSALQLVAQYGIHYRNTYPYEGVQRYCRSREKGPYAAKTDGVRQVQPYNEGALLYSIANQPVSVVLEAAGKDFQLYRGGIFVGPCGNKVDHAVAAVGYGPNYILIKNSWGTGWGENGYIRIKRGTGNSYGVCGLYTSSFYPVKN
The experiment in a line: Inhibition of papaya papain at 100 ug/ml.

Assay [2] is described as follows: Inhibition of elastase.
Assay [3] concerns the target Prothrombin (Homo sapiens) (UniProt P00734). The experiment in a line: Inhibition of thrombin at 100 ug/ml.
The target in assay [4] is Plasminogen (Homo sapiens) (UniProt P00747). The assay can be described thus: Inhibition of plasmin at 100 ug/ml.
Chain of Plasminogen (Homo sapiens) (P00747 97-580 limits assumed): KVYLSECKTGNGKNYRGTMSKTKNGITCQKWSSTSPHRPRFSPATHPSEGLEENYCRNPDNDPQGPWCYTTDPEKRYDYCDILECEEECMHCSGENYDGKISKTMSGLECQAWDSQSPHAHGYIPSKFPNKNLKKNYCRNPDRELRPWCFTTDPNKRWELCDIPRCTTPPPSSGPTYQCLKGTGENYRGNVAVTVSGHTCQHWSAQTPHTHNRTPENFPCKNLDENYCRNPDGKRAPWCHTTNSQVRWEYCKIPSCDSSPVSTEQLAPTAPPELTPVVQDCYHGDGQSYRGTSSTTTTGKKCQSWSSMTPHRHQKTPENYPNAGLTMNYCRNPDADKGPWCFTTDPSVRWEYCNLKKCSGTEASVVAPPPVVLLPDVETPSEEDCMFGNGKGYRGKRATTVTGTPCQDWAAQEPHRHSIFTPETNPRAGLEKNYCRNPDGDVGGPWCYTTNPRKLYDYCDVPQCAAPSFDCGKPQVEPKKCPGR
Chain of Plasminogen (Homo sapiens) (P00747 581-810 limits assumed): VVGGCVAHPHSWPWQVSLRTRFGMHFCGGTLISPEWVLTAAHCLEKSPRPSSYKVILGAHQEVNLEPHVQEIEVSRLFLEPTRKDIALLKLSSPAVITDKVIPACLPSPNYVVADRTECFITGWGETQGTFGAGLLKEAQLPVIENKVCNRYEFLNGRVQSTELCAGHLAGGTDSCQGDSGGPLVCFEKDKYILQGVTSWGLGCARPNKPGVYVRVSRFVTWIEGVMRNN
The nature of assay [5]: Inhibition of trypsin at 100 ug/ml.
Assay [6] can be described thus: Inhibition of chymotrypsin.

In general, IC50 refers to the concentration needed to halve the response being measured. Higher therefore signals lower potency. Turning to `CC[C@H](C)[C@@H]1NC(=O)[C@H](Cc2ccc(O)cc2)N(C)C(=O)[C@H]([C@@H](C)CC)N2C(=O)C(CCC2O)NC(=O)[C@H](CC(C)C)NC(=O)[C@@H]2C(OC1=O)C(C)CN2C(=O)[C@H](CCC(N)=O)NC(C)=O` (some centres not stated) [NOSTOPEPTIN B], the outcome in assay [1], in assay [3], in assay [4] and in assay [5] was inactive. In addition, the IC50 in assay [2] came out at 11 µg/mL (≈ 11.9 µM); in assay [6], 1.6 µg/mL (≈ 1.73 µM).
Turning to `CCCC(=O)N[C@@H](CCC(N)=O)C(=O)N1CC(C)C2OC(=O)[C@H]([C@@H](C)CC)NC(=O)[C@H](Cc3ccc(O)cc3)N(C)C(=O)[C@H]([C@@H](C)CC)N3C(=O)C(CCC3O)NC(=O)[C@H](CC(C)C)NC(=O)[C@H]21` (some centres not stated) [NOSTOPEPTIN A], the outcome in assay [1], in assay [3], in assay [4] and in assay [5] was inactive. The figures for the IC50 in assay [2] and in assay [6] were 1.3 µg/mL (≈ 1.36 µM) and 1.4 µg/mL (≈ 1.47 µM), respectively.
